Experimental findings from publication PMC10692101, “3-(4-Hydroxy-3-methoxyphenyl) propionic acid contributes to improved hepatic lipid metabolism via GPR41” (Scientific Reports, 2023) are described below.

For assay [1], the target named is T1, GPR41 (Mus musculus, UniProt Q3UFD7).
T1 construct: gene Ffar3; mouse GPR41 cDNA in pcDNA5/FRT/TO, expressed in Flp-In T-Rex HEK 293 cells
T1 sequence (Q3UFD7 1-319): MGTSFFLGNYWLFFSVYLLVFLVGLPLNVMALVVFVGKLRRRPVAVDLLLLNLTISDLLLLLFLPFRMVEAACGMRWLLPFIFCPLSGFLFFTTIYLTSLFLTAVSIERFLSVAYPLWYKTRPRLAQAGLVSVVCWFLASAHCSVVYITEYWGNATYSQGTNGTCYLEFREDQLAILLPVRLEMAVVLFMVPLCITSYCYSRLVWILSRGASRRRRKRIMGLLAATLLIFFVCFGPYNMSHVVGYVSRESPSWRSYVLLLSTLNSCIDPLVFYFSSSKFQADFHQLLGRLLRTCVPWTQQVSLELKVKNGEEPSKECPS
The assay can be described thus: inhibition of forskolin-induced cAMP in doxycycline-inducible mouse GPR41 HEK293 cells. The class given is cell-based.

Assay [2] deals with T1, GPR41. The assay can be described thus: inhibition of forskolin-induced cAMP in doxycycline-inducible mouse GPR41 HEK293 cells; Dox(-) controls inactive. In kind it is cell-based.

pEC50: −log10 of the molar value.

`COc1cc(/C=C/C(=O)O)ccc1O` [HMCA, 4-hydroxy-3-methoxycinnamic acid] gave a pEC50 at GPR41 [1] of 2.25. At GPR41 [2], `COc1cc(CCC(=O)O)ccc1O` [HMPA, 3-(4-hydroxy-3-methoxyphenyl) propionic acid] showed a pEC50 of 2.63.
